{
  "source": "patent US5198552A",
  "about": "“Indole derivative having antiviral, interferon-inducing and immunomodulatory effects” (priority 1991, dated 1993)",
  "key": {"[1]": {"system": "interferon", "conditions": "mouse blood serum; cited from earlier work"}, "[2]": {"system": "interferon", "conditions": "cell culture; cited from earlier work"}, "[3]": {"system": "peritoneal macrophages", "test": "Absorbing capacity of mouse peritoneal macrophages (neutral red)", "assay_type": "in vivo, mice"}, "[4]": {"system": "antibody-producing cells", "test": "Antibody-producing cells in the spleen of mice immunized with sheep erythrocytes", "assay_type": "in vivo"}, "[5]": {"system": "stem cells", "test": "Inactivation of stem cells with allogenic lymphocytes (graft versus host, spleen endocolonies)", "assay_type": "in vivo, mice"}, "[6]": {"system": "interferon", "conditions": "human blood serum; cited from earlier work"}, "[7]": {"conditions": "cited from earlier work"}, "[8]": {"system": "influenza A/B viruses", "assay_type": "cell-based"}, "[9]": {"system": "influenza A virus", "test": "Activity against influenza A virus", "assay_type": "cell-based"}, "[10]": {"system": "influenza viruses", "test": "Virucidal action on influenza viruses"}, "[11]": {"test": "in vivo", "conditions": "mouse, po"}, "[12]": {"conditions": "in vivo; cited from earlier work"}, "[13]": {"test": "Maximum tolerable concentration for chick embryo fibroblasts", "assay_type": "cell-based", "conditions": "chicken"}, "[14]": {"system": "influenza B virus", "test": "Activity against influenza B virus", "assay_type": "cell-based", "conditions": "hydrochloride", "description": "The antiviral effect of the preparation against influenza A/B viruses was tested on a hen embryo fabroblast cell culture."}, "[15]": {"system": "influenza A/B viruses", "test": "Medicinal effect on experimental influenzal pneumonia of mice induced by influenza A/B viruses", "assay_type": "in vivo"}, "[16]": {"conditions": "1 day after single administration"}, "[17]": {"conditions": "2 day after single administration"}, "[18]": {"conditions": "3 day after single administration"}},
  "note": "Counter-ions that a name gives are not always drawn. Like-named read-outs stand apart in the source and are kept apart here.",
  "data": [
    {"smiles": "c1ccc([C@H]2CN3CCSC3=N2)cc1", "note": "[Levamisole, (-) 2,3,5,6,-tetrahydro-6-phenylimidazo-/2.1.b/-thiazole hydrochloride, reference compound]", "values": [
      {"measurement": "interferon titers", "setting": "[1]", "result": "160-320 U/ml"},
      {"measurement": "interferon titers", "setting": "[2]", "result": "80-160 U/ml"},
      {"measurement": "Absorbing Capacity of Peritoneal Macrophages", "setting": "[3]; [16]", "result": "24.2 ± 4.5", "unit": "mg/6 × 10^6 cells"},
      {"measurement": "Absorbing Capacity, percent of control", "setting": "[3]; [16]", "result": "116 ± 21", "unit": "%"},
      {"measurement": "Absorbing Capacity of Peritoneal Macrophages", "setting": "[3]; [17]", "result": "27.7 ± 3.2", "unit": "mg/6 × 10^6 cells"},
      {"measurement": "Absorbing Capacity, percent of control", "setting": "[3]; [17]", "result": "121 ± 14", "unit": "%"},
      {"measurement": "Absorbing Capacity of Peritoneal Macrophages", "setting": "[3]; [18]", "result": "32.5 ± 2.4", "unit": "mg/6 × 10^6 cells"},
      {"measurement": "Absorbing Capacity, percent of control", "setting": "[3]; [18]", "result": "135 ± 9.9", "unit": "%"},
      {"measurement": "absorbing capacity of macrophages", "setting": "[3]; by 2-3 days after a single administration, p<0.05", "result": "138±11", "unit": "%"},
      {"measurement": "effect on counts of macrophages washed off the peritoneal cavity", "setting": "[3]; mouse, in vivo", "result": "no effect on counts of macrophages"},
      {"measurement": "immunopotentiating effect on tumor-carrier animals", "setting": "[4]; 7-17 day of tumor development, single (3 days prior to immunization) or 5-times daily", "result": "inefficient"},
      {"measurement": "Antibody-producing cells in spleen (% of control)", "setting": "[4]; intact mice, 5 times at a 5-day interval", "result": "170 ± 15.1", "unit": "%"},
      {"measurement": "Antibody-producing cells in spleen (% of control)", "setting": "[4]; intact mice, during 3 days, daily", "result": "164 ± 6.1", "unit": "%"},
      {"measurement": "immunostimulating effect on irradiated animals", "setting": "[4]; irradiated animals", "result": "of low efficacy"},
      {"measurement": "Antibody-producing cells in spleen (% of control)", "setting": "[4]; totally irradiated (2 Gr.), 5 times at a 5-day interval", "result": "104 ± 6.0", "unit": "%"},
      {"measurement": "Antibody-producing cells in spleen (% of control)", "setting": "[4]; totally irradiated (2 Gr.), during 3 days, daily", "result": "174 ± 24.0", "unit": "%"},
      {"measurement": "immunopotentiating effect on totally irradiated tumor-carrier animals", "setting": "[4]; totally irradiated tumor-carriers", "result": "also had the immunopotentiating effect"},
      {"measurement": "Antibody-producing cells in spleen (% of control)", "setting": "[4]; totally irradiated tumor-carriers (2 Gr.), 5 times at a 5-day interval", "result": "402 ± 12.5", "unit": "%"},
      {"measurement": "Antibody-producing cells in spleen (% of control)", "setting": "[4]; totally irradiated tumor-carriers (2 Gr.), during 3 days, daily", "result": "86.0 ± 35.0", "unit": "%"},
      {"measurement": "Antibody-producing cells in spleen (% of control)", "setting": "[4]; tumor-carriers, 5 times at a 5-day interval", "result": "91 ± 14.0", "unit": "%"},
      {"measurement": "Antibody-producing cells in spleen (% of control)", "setting": "[4]; tumor-carriers, during 3 days, daily", "result": "14 ± 23.0", "unit": "%"},
      {"measurement": "The counts of spleen endocolonies (M ± m)", "setting": "[5]; 1.25 × 10^6 lymphocytes", "result": "2.3 ± 0.5"},
      {"measurement": "The counts of spleen endocolonies (M ± m)", "setting": "[5]; 2.5 × 10^6 lymphocytes", "result": "1.1 ± 0.2"},
      {"measurement": "The counts of spleen endocolonies (M ± m)", "setting": "[5]; 5.0 × 10^6 lymphocytes", "result": "0.7 ± 0.2"},
      {"measurement": "The counts of spleen endocolonies (M ± m)", "setting": "[5]; no lymphocytes given, hydrochloride", "result": "1.1 ± 0.3"},
      {"measurement": "The counts of spleen endocolonies (M ± m)", "setting": "[5]; no lymphocytes given, listed as levamisole, hydrochloride", "result": "somewhat decreases the yield of the spleen colonies"},
      {"measurement": "effect on yield of spleen colonies under graft versus host conditions", "setting": "[5]; preparation 100 mg per 1 kg orally, levamisole 5 mg per 1 kg", "result": "identical but a less pronounced effect"},
      {"measurement": "interferon titers", "setting": "[6]", "result": "40-80 U/ml"},
      {"measurement": "side-effects", "setting": "[7]; in vivo", "result": "a headache, sleep disturbances, olfactory hallicinations (odour changes), allergic skin hypersensitivity, influenza-like and neurologic symptoms"},
      {"measurement": "toxicity", "setting": "[7]; in vivo", "result": "highly toxic"},
      {"measurement": "agranulocytosis: decrease of neutrophile to a value", "setting": "[7]; treatment as an immunomodulator", "result": "below 25%"}
    ]},
    {"smiles": "CC(N)C12CC3CC(CC(C3)C1)C2", "note": "(stereo not shown) [Remantadine, alfa-methyl-1-adamantanemethylamine hydrochloride]", "values": [
      {"measurement": "inhibition of influenza A/B virus reproduction / chemotherapeutical effect", "setting": "[8]", "result": "Inhibits the reproduc-"},
      {"measurement": "efficacy against influenza A virus", "setting": "[9]", "result": "efficient only against influenza A virus"},
      {"measurement": "virucidal action on influenza viruses", "setting": "[10]", "result": "No virucidal action"},
      {"measurement": "LD50", "setting": "[11]", "result": 340, "unit": "mg/kg"},
      {"measurement": "side-effect", "setting": "[12]", "result": "side-effect on a central nervous system"},
      {"measurement": "MNTC", "setting": "[13]", "result": 20, "unit": "µg/mL"},
      {"measurement": "efficacy against influenza B virus", "setting": "[14]", "result": "It is inefficient against"},
      {"measurement": "efficacy against influenza B virus", "setting": "[14]; listed as remantadine", "result": "inefficient against influenza B virus"},
      {"measurement": "medicinal (chemotherapeutical) effect on influenzal pneumonia", "setting": "[15]", "result": "Exert a medicinal effect"}
    ]}
  ]
}
